Results as given in patent US20210228545A1, “METHODS OF TREATING CONDITIONS RELATED TO THE S1P1 RECEPTOR” (Arena Pharmaceuticals, Inc., priority 2018, published 2021).

Columns and labels:
CYP2C8 = biological target: T1, CYP2C8 (Homo sapiens, UniProt P10632); experiment: CYP reaction phenotyping in HLMs with selective chemical inhibitor; format: in vitro ADME
T1 construct: human liver microsomes from a pool of 200 individuals; from tissue; host or cells: human liver microsomes, pool of 200 individuals
T1 sequence (P10632 1-490): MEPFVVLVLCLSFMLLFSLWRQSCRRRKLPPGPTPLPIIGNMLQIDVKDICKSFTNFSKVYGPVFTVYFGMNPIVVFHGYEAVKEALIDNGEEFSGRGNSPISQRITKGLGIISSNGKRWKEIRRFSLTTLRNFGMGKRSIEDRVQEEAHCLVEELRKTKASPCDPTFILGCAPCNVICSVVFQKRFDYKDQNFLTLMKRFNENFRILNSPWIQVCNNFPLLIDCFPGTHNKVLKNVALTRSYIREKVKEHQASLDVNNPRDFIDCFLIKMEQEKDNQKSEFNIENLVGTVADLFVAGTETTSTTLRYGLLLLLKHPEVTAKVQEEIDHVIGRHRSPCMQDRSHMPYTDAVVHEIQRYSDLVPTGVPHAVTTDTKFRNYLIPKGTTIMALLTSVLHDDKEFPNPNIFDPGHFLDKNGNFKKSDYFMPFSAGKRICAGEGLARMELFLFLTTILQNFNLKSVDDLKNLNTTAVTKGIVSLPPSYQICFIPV

[1] = in vivo; cited from earlier work
[2] = mice; cited from earlier work
[3] = prophylactic oral 1 mg/kg, three times a week; cited from earlier work
[4] = spared nerve injury model; cited from earlier work
[5] = short-term high dose; cited from earlier work
[6] = Phase II, relapsing-remitting multiple sclerosis; cited from earlier work
[7] = murine; cited from earlier work

Inhibition of conversion of Compound 1 to first oxidative metabolite (CYP2C8) [%]	Inhibition of conversion of Compound 1 to ketone metabolite (CYP2C8) [%]	Inhibition of conversion of Compound 1 to second oxidative metabolite (CYP2C8) [%]	SMILES	Adverse event in clinical trials [1]	Effect on ovariectomy-induced osteoporosis [2]	Development of EAMG [3]	Effect on nociceptive behavior [4]	Effect on ocular infiltrates [5]	Effect on MRI lesions and clinical disease activity [6]	Effect on contact hypersensitivity [7]
85	60	47	Cc1ccc(C)c(OCCCC(C)(C)C(=O)O)c1 [gemfibrozil]	–	–	–	–	–	–	–
–	–	–	CCCCCCCCc1ccc(CCC(N)(CO)CO)cc1 [FTY720]	transient asymptomatic bradycardia	relieved ovariectomy-induced osteoporosis	completely prevented	reduce the nociceptive behavior	rapidly reduced ocular infiltrates	reduce the number of lesions detected by magnetic resonance imaging (MRI) and clinical disease activity	impair initiation
